What was measured:
Format in all cases: biochemical
[1] = biological target: T1, recombinant human baculovirus-expressed VEGFR1 cytoplasmic domain (Homo sapiens, UniProt P17948); assay: VEGFR1 kinase inhibition assay (ELISA-based, time-resolved fluorescence); details: 1 uM compound; 30 μM ATP
T1 construct: recombinant human baculovirus-expressed VEGFR1 cytoplasmic domain; host or cells: baculovirus expression system
T1 sequence (P17948 781-1338 limits assumed): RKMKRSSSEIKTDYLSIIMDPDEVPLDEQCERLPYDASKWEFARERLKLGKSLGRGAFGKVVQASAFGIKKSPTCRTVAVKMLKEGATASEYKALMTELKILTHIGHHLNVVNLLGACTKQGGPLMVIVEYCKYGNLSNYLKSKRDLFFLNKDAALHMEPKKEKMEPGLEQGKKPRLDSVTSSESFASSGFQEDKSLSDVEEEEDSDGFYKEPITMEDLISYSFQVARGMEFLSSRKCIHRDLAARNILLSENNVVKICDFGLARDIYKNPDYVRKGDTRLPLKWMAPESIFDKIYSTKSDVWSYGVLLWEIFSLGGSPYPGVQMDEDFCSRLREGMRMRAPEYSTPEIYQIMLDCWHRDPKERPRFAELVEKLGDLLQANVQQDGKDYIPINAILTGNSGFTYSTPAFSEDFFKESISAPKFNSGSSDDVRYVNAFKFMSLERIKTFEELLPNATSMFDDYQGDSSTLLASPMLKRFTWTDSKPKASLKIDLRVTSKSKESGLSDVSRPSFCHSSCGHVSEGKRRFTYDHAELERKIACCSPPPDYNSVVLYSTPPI
Procedure, shortened: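 Prephosphorylated baculovirus-expressed VEGFR1 cytoplasmic domain (300 ng/ml) phosphorylates plate-bound PLC-γ/GST with 30 μM ATP, 10 mM MnCl2, pH 7.4, 15 min at 37 °C. Compounds tested at 1 μM. Phosphotyrosine detected with europium anti-phosphotyrosine antibody by time-resolved fluorescence.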

baculoviral GST-MLK2KDLZ = biological target: T2, baculoviral GST-MLK2KDLZ (Homo sapiens, UniProt Q02779); assay: Mixed Lineage Kinase-2 inhibition assay (Millipore Multiscreen plate, 32P); details: 1 uM compound; 100 μM ATP
T2 construct: 3 μg/ml of baculoviral GST-MLK2KDLZ; GST (N); host or cells: baculovirus expression system
Procedure, shortened: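 Baculoviral GST-MLK2KDLZ (3 μg/ml) phosphorylating myelin basic protein (500 μg/ml) with 100 μM ATP plus [γ-32P]ATP in Hepes pH 7, MgCl2, 2% DMSO, 15 min at 37° C. TCA-precipitated protein counted by scintillation.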

baculoviral GST-MLK3KD = biological target: T3, baculoviral GST-MLK3KD (Homo sapiens, UniProt Q16584); assay: Mixed Lineage Kinase-3 inhibition assay (Millipore Multiscreen plate, 32P); details: 1 uM compound; 100 μM ATP
T3 construct: 2 μg/ml of baculoviral GST-MLK3KD; GST (N); host or cells: baculovirus expression system
Procedure, shortened: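 Radiometric filter-plate assay: 2 μg/ml baculoviral GST-MLK3KD with 500 μg/ml myelin basic protein, 100 μM ATP plus [γ-32P]ATP, in 20 mM Hepes pH 7, 10 mM MgCl2, 1 mM DTT, 2% DMSO. Incubated 15 min at 37 °C, stopped and precipitated with cold TCA, washed, then scintillation counted.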

[2] = biological target: T4, recombinant human baculovirus-expressed FGFR1 cytoplasmic domain (Homo sapiens, UniProt P11362); assay: FGFR1 kinase inhibition assay (ELISA-based, time-resolved fluorescence); details: 1 uM compound; 20 μM ATP
T4 construct: recombinant human baculovirus-expressed FGFR1 cytoplasmic domain; host or cells: baculovirus expression system
Procedure, shortened: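 Prephosphorylated baculovirus FGFR1 cytoplasmic domain (15 ng/ml) phosphorylated plate-coated PLC-γ/GST with 20 μM ATP, 10 mM MnCl2, HEPES pH 7.4, 2% DMSO, 15 min at 37 °C. Compounds tested at 1 μM. Phosphotyrosine detected with europium-labelled antibody by time-resolved fluorescence.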

T4 sequence (P11362 398-822 limits assumed): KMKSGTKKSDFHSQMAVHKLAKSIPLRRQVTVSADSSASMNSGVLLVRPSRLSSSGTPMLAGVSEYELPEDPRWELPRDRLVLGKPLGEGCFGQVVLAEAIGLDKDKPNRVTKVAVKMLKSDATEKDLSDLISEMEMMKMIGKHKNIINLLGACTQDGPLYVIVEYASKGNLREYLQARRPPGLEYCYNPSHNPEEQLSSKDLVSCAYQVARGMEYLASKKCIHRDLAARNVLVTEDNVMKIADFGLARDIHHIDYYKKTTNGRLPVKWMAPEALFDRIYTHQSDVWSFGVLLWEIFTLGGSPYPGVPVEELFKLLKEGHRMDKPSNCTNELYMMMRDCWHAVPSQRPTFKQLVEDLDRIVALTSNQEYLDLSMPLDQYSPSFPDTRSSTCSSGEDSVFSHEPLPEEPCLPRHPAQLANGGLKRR
T3 sequence (Q16584 117-379 limits assumed): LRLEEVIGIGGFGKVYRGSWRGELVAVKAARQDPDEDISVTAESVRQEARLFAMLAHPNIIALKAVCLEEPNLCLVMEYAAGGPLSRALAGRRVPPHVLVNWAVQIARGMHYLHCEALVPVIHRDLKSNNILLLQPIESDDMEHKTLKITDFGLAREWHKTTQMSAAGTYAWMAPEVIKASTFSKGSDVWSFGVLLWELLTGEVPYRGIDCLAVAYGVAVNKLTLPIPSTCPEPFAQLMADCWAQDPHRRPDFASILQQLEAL
T2 sequence (Q02779 98-440 limits assumed): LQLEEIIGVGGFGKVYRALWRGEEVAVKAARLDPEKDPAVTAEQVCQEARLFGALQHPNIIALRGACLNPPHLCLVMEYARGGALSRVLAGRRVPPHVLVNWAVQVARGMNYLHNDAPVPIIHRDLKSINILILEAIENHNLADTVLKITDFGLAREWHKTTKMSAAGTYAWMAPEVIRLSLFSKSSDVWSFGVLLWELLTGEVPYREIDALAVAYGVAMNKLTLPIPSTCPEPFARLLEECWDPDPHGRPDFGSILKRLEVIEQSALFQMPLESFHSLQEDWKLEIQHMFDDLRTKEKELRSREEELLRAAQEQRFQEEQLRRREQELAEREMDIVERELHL

Structure (SMILES) | VEGFR-1 kinase % inhibition @ 1 uM [1] | MLK-2 Kinase % inhibition @ 1 uM (baculoviral GST-MLK2KDLZ) | MLK-3 Kinase % inhibition @ 1 uM (baculoviral GST-MLK3KD) | FGFR1 % inhibition @ 1 uM [2]
Cn1cc(C=C2C(=O)NN=C2c2nccs2)c2ccccc21 [Compound 60] | 63% | 9% | 58% | 66%
O=C1NN=C(c2ccco2)C1=Cc1c[nH]c2cccc(OCc3ccccc3)c12 [Compound 44] | 2% | −3% | 28% | 10%
COC(=O)c1ccc2[nH]cc(C=C3C(=O)NN=C3c3ccoc3)c2c1 [Compound 16] | 18% | 7% | 12% | 1%
Cn1cc(C=C2C(=O)NN=C2c2cc3ccccc3o2)c2ccccc21 [Compound 59] | −2% | −8% | 47% | 29%
Cn1cc(C=C2C(=O)NN=C2c2ccoc2)c2ccccc21 [Compound 20] | 45% | −3% | 57% | 27%
COC(=O)c1ccc2c(C=C3C(=O)NN=C3c3ccco3)c[nH]c2c1 [Compound 50] | 31% | −1% | 15% | 20%
